# Experimental data published in US20250188082A1, “Use of Hypoxanthine Compound In Preparation of Drug For Treating Pulmonary Fibrosis” (Sichuan Yiasuo Pharmaceutical Technology Co., Ltd., priority 2022, published 2025).
# Assays:
# Type in all cases: in vivo, C57BL/6 mice
# [1] = tested on: novel coronavirus-induced pulmonary fibrosis model (COVID-19 novel coronavirus strains); experiment: Novel coronavirus-induced pulmonary fibrosis model; conditions: 120 mg/kg/d intragastric, 14 days; for Ashcroft scores: novel coronavirus + bleomycin, lung tissue HE; for IL-1β / IL-6 / NF-κB / TNF-α: serum, COVID-19 novel coronavirus + bleomycin, from two weeks after model
# Excerpt: (§1) Experimental method: an in-vivo novel coronavirus-induced pulmonary fibrosis model was established: C57BL/6 mice (with weights being 22-25 g) were randomly and evenly divided into a plurality of groups, including blank control group, model group, Nintedanib positive control group, hypoxanthine analogue A group, hypoxanthine analogue B group, hypoxanthine analogue C group, compound 1 group, a compound 2 group . . . compound 12 group, with 9 mice in each group. On Day 1, the mice in blank control group were instilled with normal saline nasally, and the mice in other groups were all infected with COVID-19 novel coronavirus strains (30 μL) through nasal instillation. On Day 2, the mice received 5 mg/kg bleomycin through tracheas to induce their pulmonary fibrosis. After the model was established for two weeks, the mice in each group were intragastrically administrated for intervention for consecutive 14 days; the mice in blank control group and model group intragastrically received the same dosage of normal saline as those in drug groups; the mice in Nintedanib positive control group received Nintedanib (120 mg/kg); the mice in hypoxanthine analogue A group, hypoxanthine analogue B group and hypoxanthine analogue C group respectively received hypoxanthine analogue A (120 mg/kg/d), hypoxanthine analogue B (120 mg/kg/d) and hypoxanthine analogue C (120 mg/kg/d); and the mice in compound 1 group, compound 2 group . . . compound 12 group respectively received compound 1 (120 mg/kg/d), compound 2 (120 mg/kg/d) . . . compound 12 (120 mg/kg/d) prepared in example 1. After administration for consecutive 14 days, the mice were observed every day, and their weights and death conditions were recorded. After administration, blood was taken from eyeballs for immediately detecting the expression levels of NF-κB, TNF-α, IL-1 and IL-6 in serum, and lung tissues were taken for HE detection and Ashcroft scoring.
# [2] = tested on: influenza A virus-induced pulmonary fibrosis model (FM1 strain of influenza A (H1N1) virus); experiment: Influenza A virus-induced pulmonary fibrosis model; conditions: 120 mg/kg/d intragastric, 14 days; for Ashcroft scores: influenza A virus + bleomycin, lung tissue HE; for IL-1β / IL-6 / NF-κB / TNF-α: serum, influenza A (H1N1) FM1 + bleomycin, from two weeks after model
# Excerpt: as §1, with “an in-vivo influenza A virus-induced pulmonary fibrosis” for “an in-vivo novel coronavirus-induced pulmonary fibrosis”, “1 group, compound 2” for “1 group, a compound 2”, “infected with a FM1 strain of an influenza A (H1N1) virus 30 (μL) through nasal” for “infected with COVID-19 novel coronavirus strains (30 μL) through nasal”, “dosage of the normal saline” for “dosage of normal saline”
# [3] = tested on: Streptococcus pneumoniae-induced pulmonary fibrosis model; experiment: Streptococcus pneumoniae-induced pulmonary fibrosis model; conditions: for Leucocyte / Lymphocyte / Neutrophil / Ashcroft scores: Streptococcus pneumoniae + bleomycin, 120 mg/kg/d intragastric, 14 days; for Leucocyte / Lymphocyte / Neutrophil: blood, Day 15, 3 times every day, from one week after model; for Ashcroft scores: lung tissue HE staining
# [4] = tested on: bleomycin-induced pulmonary fibrosis model; experiment: Comparison with comparative drugs: bleomycin-induced model, hydroxyproline and TGF-β; conditions: 120 mg/kg/d intragastric, twice every day, 14 days, from two weeks after model; Day 15
# [5] = tested on: bleomycin-induced pulmonary fibrosis model; experiment: Early pulmonary fibrosis: bleomycin-induced model, dosing from one week after modelling; conditions: for Leucocyte / Lymphocyte / Neutrophil / Ashcroft scores: early pulmonary fibrosis, 120 mg/kg/d intragastric, 14 days, from one week after model; for Leucocyte / Lymphocyte / Neutrophil: blood, Day 15, twice every day; for Ashcroft scores: lung tissue HE staining
# [6] = tested on: bleomycin-induced pulmonary fibrosis model; experiment: Advanced pulmonary fibrosis: bleomycin-induced model, dosing from three weeks after modelling; conditions: for Leucocyte / Lymphocyte / Neutrophil / Ashcroft scores: advanced pulmonary fibrosis, 120 mg/kg/d intragastric, 14 days, from three weeks after model; for Leucocyte / Lymphocyte / Neutrophil: blood, Day 15, twice every day; for Ashcroft scores: lung tissue HE staining
SMILES,Ashcroft scores [1],IL-1β [1] [pg/mL],IL-6 [1] [pg/mL],NF-κB [1] [pg/mL],TNF-α [1] [pg/mL],Ashcroft scores [2],IL-1β [2] [pg/mL],IL-6 [2] [pg/mL],NF-κB [2] [pg/mL],TNF-α [2] [pg/mL],Hydroxyproline in bronchoalveolar lavage fluids [4] [µg/mg],Hydroxyproline in lung tissues [4] [µg/mg],TGF-β in bronchoalveolar lavage fluids [4] [µg/L],TGF-β in lung tissues [4] [µg/L],Leucocyte [3],Lymphocyte [3],Neutrophil [3],Ashcroft scores [3],Leucocyte [5],Neutrophil [5],also measured
COc1ncnc2c1ncn2C(C)C [Compound 7],1.15,39.9,66.4,24.6,67.5,1.28,29.0,65.3,26.4,91.2,0.69 ± 0.08,1.42 ± 0.14,4.02 ± 0.15,25.15 ± 2.53,,,,,,,Leucocyte ([3]; 120 mg/kg/day): 6.39 10^9/L; Lymphocyte ([3]; 120 mg/kg/day): 7.72 10^9/L; Neutrophil ([3]; 120 mg/kg/day): 1.88 10^9/L; Ashcroft scores ([3]; 120 mg/kg/day): 1.29; Leucocyte ([5]; 120 mg/kg/day): 4.19 10^9/L; Lymphocyte ([5]; 120 mg/kg/day): 5.44 10^9/L; Neutrophil ([5]; 120 mg/kg/day): 1.23 10^9/L; Ashcroft scores ([5]; 120 mg/kg/day): 1.11; Leucocyte ([6]; 120 mg/kg/day): 4.61 10^9/L; Lymphocyte ([6]; 120 mg/kg/day): 5.65 10^9/L; Neutrophil ([6]; 120 mg/kg/day): 1.44 10^9/L; Ashcroft scores ([6]; 120 mg/kg/day): 1.13
CC(C)Oc1ncnc2nc[nH]c12 [Compound 5],1.11,37.5,66.4,24.3,66.1,,28.1,65.6,27.7,90.2,0.69 ± 0.09,1.43 ± 0.07,3.93 ± 0.18,24.18 ± 1.65,6.75 10^9/L,7.64 10^9/L,1.82 10^9/L,1.25,4.23 10^9/L,1.26 10^9/L,Lymphocyte [5]: 5.60 10^9/L; Ashcroft scores [5]: 1.22; Leucocyte [6]: 4.34 10^9/L; Lymphocyte [6]: 5.74 10^9/L; Neutrophil [6]: 1.36 10^9/L; Ashcroft scores [6]: 1.22
"CC(C)Oc1ncnc2c1ncn2C [Hypoxanthine analogue B, reference compound]",6.38,491.8,552.3,741.1,401.9,6.07,329.7,422.7,771.9,341.6,1.81 ± 0.14,2.97 ± 0.19,8.95 ± 0.68,91.53 ± 9.56,156.11 10^9/L,91.01 10^9/L,89.86 10^9/L,6.14,49.97 10^9/L,36.88 10^9/L,"inhibition (anti-inflammatory) effect on leucocytes, neutrophils and lymphocytes in blood ([3]; mice with Streptococcus pneumoniae-induced pulmonary fibrosis, result in words): obviously inferior; Ashcroft scores [5]: 5.39; inhibition (anti-inflammatory) effect on leucocytes, neutrophils and lymphocytes in blood ([5]; mice with early pulmonary fibrosis, result in words): obviously inferior; Leucocyte [6]: 71.35 10^9/L; Lymphocyte [6]: 67.37 10^9/L; Neutrophil [6]: 68.34 10^9/L; Ashcroft scores [6]: 6.01; inhibition (anti-inflammatory) effect on leucocytes, neutrophils and lymphocytes in blood ([6]; mice with advanced pulmonary fibrosis, result in words): obviously inferior"
CC(C)Oc1ncnc2ncn(C(C)C)c12 [Compound 4],1.50,37.2,64.5,25.2,65.9,1.29,29.6,65.1,27.4,89.8,0.71 ± 0.08,1.29 ± 0.08,3.95 ± 0.14,24.58 ± 1.95,6.99 10^9/L,6.84 10^9/L,1.51 10^9/L,1.29,4.29 10^9/L,1.31 10^9/L,Lymphocyte [5]: 5.56 10^9/L; Ashcroft scores [5]: 1.18; Leucocyte [6]: 4.26 10^9/L; Lymphocyte [6]: 5.63 10^9/L; Neutrophil [6]: 1.34 10^9/L; Ashcroft scores [6]: 1.24
CC(C)Oc1ncnc2c1ncn2C(C)C [Compound 3],1.19,36.3,65.3,24.7,63.5,1.18,26.3,62.9,24.3,86.1,0.70 ± 0.05,1.31 ± 0.07,3.95 ± 0.19,24.15 ± 2.04,5.62 10^9/L,5.77 10^9/L,1.60 10^9/L,1.01,4.01 10^9/L,0.96 10^9/L,Lymphocyte [5]: 4.99 10^9/L; Ashcroft scores [5]: 0.92; Leucocyte [6]: 3.98 10^9/L; Lymphocyte [6]: 5.18 10^9/L; Neutrophil [6]: 1.19 10^9/L; Ashcroft scores [6]: 0.87
